Experimental data: patent publication US20240158355A1, “BET SUBFAMILY INHIBITORS AND METHODS USING SAME” (Baylor College of Medicine, priority 2021, published 2024)

Biological target: BRDT-BD2 (Homo sapiens (Human), UniProt Q58F21)
Experiment: AlphaScreen bromodomain proximity assay (competition with biotinylated (+)-JQ1), BRDT-BD2
Assay type: binding

Row | SMILES | IC50 [nM]
1 | COc1ccc(NC(=O)c2ccc3c(c2)c(-c2cc4ccccc4n2C)nn3C)cc1Br [compound 68, N-(3-Bromo-4-methoxyphenyl)-1-methyl-3-(1-methyl-1H-indol-2-yl)-1H-indazole-5-carboxamide] | 274
2 | COc1ccc(NC(=O)c2ccc3c(c2)c(-c2cc4ccccc4n2C)nn3C)cc1-c1ccccc1 [compound 72, N-(6-Methoxy-[1,1′-biphenyl]-3-yl)-1-methyl-3-(1-methyl-1H-indol-2-yl)-1H-indazole-5-carboxamide] | 2390
3 | COc1ccc(NC(=O)c2ccc3c(c2)c(-c2cc4ccccc4n2C)nn3C)cc1OC [compound 30, N-(3,4-Dimethoxyphenyl)-1-methyl-3-(1-methyl-1H-indol-2-yl)-1H-indazole-5-carboxamide] | 101
4 | COc1ccc(NC(=O)c2ccc3c(c2)c(-c2ccncc2)nn3C)cc1 [compound 43, N-(4-Methoxyphenyl)-1-methyl-3-(pyridin-4-yl)-1H-indazole-5-carboxamide] | 978
5 | COc1ccc(NC(=O)c2ccc3c(c2)c(-c2cc4ccccc4n2C)nn3C)cc1 [compound 28, N-(4-Methoxyphenyl)-1-methyl-3-(1-methyl-1H-indol-2-yl)-1H-indazole-5-carboxamide] | 121
6 | COc1ccc(NC(=O)c2ccc3c(c2)c(-c2cc4ccccc4n2C)nn3C)cc1S(N)(=O)=O [compound 73, N-(4-Methoxy-3-sulfamoylphenyl)-1-methyl-3-(1-methyl-1H-indol-2-yl)-1H-indazole-5-carboxamide] | 111
7 | COc1ccc(NC(=O)c2ccc3c(c2)c(-c2ccc(NC(C)=O)cc2C)nn3C)cc1 [compound 66, 3-(4-Acetamido-2-methylphenyl)-N-(4-methoxyphenyl)-1-methyl-1H-indazole-5-carboxamide] | > 10000
8 | COc1ccc(NC(=O)c2ccc3c(c2)c(-c2cc4ccccc4n2C)nn3C)cc1Cl [compound 32, N-(3-Chloro-4-methoxyphenyl)-1-methyl-3-(1-methyl-1H-indol-2-yl)-1H-indazole-5-carboxamide] | 164
9 | COc1ccc(NC(=O)c2ccc3c(c2)c(-c2ccncc2C)nn3C)cc1 [compound 44, N-(4-Methoxyphenyl)-1-methyl-3-(3-methylpyridin-4-yl)-1H-indazole-5-carboxamide] | 705
10 | COc1ccc(NC(=O)c2ccc3c(c2)c(-c2cc4ccccc4n2C)nn3C)c(F)c1 [compound 35, N-(2-Fluoro-4-methoxyphenyl)-1-methyl-3-(1-methyl-1H-indol-2-yl)-1H-indazole-5-carboxamide] | 203
11 | CCOc1ccc(NC(=O)c2ccc3c(c2)c(-c2ccc(N)cc2C)nn3C)cc1 [compound 62, 3-(4-Amino-2-methylphenyl)-N-(4-ethoxyphenyl)-1-methyl-1H-indazole-5-carboxamide] | 48
12 | CC(=O)Nc1cc(NC(=O)c2ccc3c(c2)c(-c2cnc(N)cc2C)nn3C)ccc1C [compound 16, N-(3-Acetamido-4-methylphenyl)-3-(6-amino-4-methylpyridin-3-yl)-1-methyl-1H-indazole-5-carboxamide] | 126
13 | COc1ccc(NC(=O)c2ccc3c(c2)c(-c2cc4ccccc4n2C)nn3C)cc1C [compound 29, N-(4-Methoxy-3-methylphenyl)-1-methyl-3-(1-methyl-1H-indol-2-yl)-1H-indazole-5-carboxamide] | 111
14 | COc1ccc(NC(=O)c2ccc3c(c2)c(-c2cc4ccccc4n2C)nn3C)cc1F [compound 31, N-(3-Fluoro-4-methoxyphenyl)-1-methyl-3-(1-methyl-1H-indol-2-yl)-1H-indazole-5-carboxamide] | 119
15 | Cc1ccc(NC(=O)c2ccc3c(c2)c(-c2ccc(N)cc2C)nn3C)cc1C(N)=O [compound 56, 3-(4-Amino-2-methylphenyl)-N-(3-carbamoyl-4-methylphenyl)-1-methyl-1H-indazole-5-carboxamide] | 34
